# Experiments:
# [1] = Tracking fluorescence on reaction with H2O2 (FIG. 1d); format: biochemical; details: H2O2 40 μM only
# Excerpt: This figure is a graph showing results that are obtained by tracking fluorescence by allowing the compound 1d to react with H2O2 or superoxide produced enzymatically, a horizontal axis thereof represents a reaction time (second), and a vertical axis thereof represents a fluorescence intensity (au). In the figure, (a) represents a result obtained by a reaction in the presence of HPX and XO, (b) represents a result obtained by a reaction in the presence of HPX, XO and SOD, (c) represents a result obtained by a reaction under an anaerobic condition in the presence of HPX, XO and SOD, and (d) represents a result obtained by a reaction with only H2O2. The test results shown in FIG. 1 will be described below in further detail.
# [2] = Capability as superoxide-detecting fluorescent probe (reactivity with superoxide); format: biochemical
# Description: Then, by mainly using the compound 1d as a testing compound, the capability thereof as a superoxide-selective fluorescent probe was evaluated, and moreover, a test in a cell system also was conducted. These tests will be described below.
# Thus, it is thought that each compound synthesized from a combination of: a phenolic colorant; and a 2,4-dinitrobenzenesulfonyl group, a 4-trifluoromethyl-2-nitrobenzenesulfonyl group or a 4-nitrobenzenesulfonyl group can be used as a superoxide-detecting fluorescent probe similarly. An example of the usage thereof will be shown in Scheme 8 below. Furthermore, it can be expected that a compound for a fluorescent probe having characteristics that are suitable for its application purpose can be designed and developed freely, by designing the compound of the present invention freely within the limitation defined by the general formula (I) and using the fluorescence mechanism developed by the inventors of the present invention, without being limited to the above-described combinations. Examples of the application purpose of the compound of the present invention are varied, including an application to a faintly coloring technique using superoxide.
smiles,measurement,setting,value
O=C1OC2(c3ccccc31)c1cc(F)c(OS(=O)(=O)c3ccc([N+](=O)[O-])cc3[N+](=O)[O-])c(F)c1Oc1c2cc(F)c(OS(=O)(=O)c2ccc([N+](=O)[O-])cc2[N+](=O)[O-])c1F [Compound 1d],"increase of fluorescence intensity with H2O2, FIG. 1(d)",[1],small enough to be neglected
same,fluorescence response by reacting with superoxide,[2],particularly superior in sensitivity
